# Measured values published in the NIST ThermoML archive (doi:10.1021/je060033f).
# ± gives the expanded uncertainty stated by the source.
# Experiment: activity coefficient (dimensionless); of the first substance listed, at infinite dilution; xn = mol fraction of the nth substance listed
# Conditions: 323.15 K; 101 kPa; Liquid; Chromatography; x1 = 0
row,SMILES,activity coefficient
1,"Cc1ccccc1C [1,2-dimethylbenzene] + C=CC[n+]1ccn(CCCCCCCC)c1.[Br-]",2.39 ± 0.16
2,"Cc1ccccc1C [1,2-dimethylbenzene] + C=CC[n+]1ccn(CCCCCCCCCC)c1.[Br-]",2.34 ± 0.16
3,"Cc1ccccc1C [1,2-dimethylbenzene] + C=CC[n+]1ccn(CCCCCCCCCCCC)c1.[Br-]",1.66 ± 0.11
4,"Cc1ccccc1C [1,2-dimethylbenzene] + C=CCn1cc[n+](C)c1.[Br-]",8.98 ± 0.61
5,"Cc1ccccc1C [1,2-dimethylbenzene] + CCCCCCCCCCCC[n+]1ccn(CCCB(O)O)c1.[Br-]",1.78 ± 0.12
6,"Cc1ccccc1C [1,2-dimethylbenzene] + CCCCCCCCCC[n+]1ccn(CCCB(O)O)c1.[Br-]",1.89 ± 0.13
7,"Cc1ccccc1C [1,2-dimethylbenzene] + CCCCCCCC[n+]1ccn(CCCB(O)O)c1.[Br-]",3.11 ± 0.21
8,"Cc1ccccc1C [1,2-dimethylbenzene] + C[n+]1ccn(CCCB(O)O)c1.[Br-]",44 ± 3
9,"Cc1cccc(C)c1 [1,3-dimethylbenzene] + C=CC[n+]1ccn(CCCCCCCC)c1.[Br-]",2.73 ± 0.19
10,"Cc1cccc(C)c1 [1,3-dimethylbenzene] + C=CC[n+]1ccn(CCCCCCCCCC)c1.[Br-]",2.73 ± 0.19
11,"Cc1cccc(C)c1 [1,3-dimethylbenzene] + C=CC[n+]1ccn(CCCCCCCCCCCC)c1.[Br-]",1.85 ± 0.12
12,"Cc1cccc(C)c1 [1,3-dimethylbenzene] + C=CCn1cc[n+](C)c1.[Br-]",11.1 ± 0.76
13,"Cc1cccc(C)c1 [1,3-dimethylbenzene] + CCCCCCCCCCCC[n+]1ccn(CCCB(O)O)c1.[Br-]",1.98 ± 0.13
14,"Cc1cccc(C)c1 [1,3-dimethylbenzene] + CCCCCCCCCC[n+]1ccn(CCCB(O)O)c1.[Br-]",2.11 ± 0.14
15,"Cc1cccc(C)c1 [1,3-dimethylbenzene] + CCCCCCCC[n+]1ccn(CCCB(O)O)c1.[Br-]",3.57 ± 0.24
16,"Cc1cccc(C)c1 [1,3-dimethylbenzene] + C[n+]1ccn(CCCB(O)O)c1.[Br-]",48.1 ± 3.3
17,"C1COCCO1 [1,4-dioxane] + C=CC[n+]1ccn(CCCCCCCC)c1.[Br-]",1.52 ± 0.1
18,"C1COCCO1 [1,4-dioxane] + C=CC[n+]1ccn(CCCCCCCCCC)c1.[Br-]",1.39 ± 0.09
19,"C1COCCO1 [1,4-dioxane] + C=CC[n+]1ccn(CCCCCCCCCCCC)c1.[Br-]",1.3 ± 0.08
20,"C1COCCO1 [1,4-dioxane] + C=CCn1cc[n+](C)c1.[Br-]",1.59 ± 0.11
21,"C1COCCO1 [1,4-dioxane] + CCCCCCCCCCCC[n+]1ccn(CCCB(O)O)c1.[Br-]",1.32 ± 0.09
22,"C1COCCO1 [1,4-dioxane] + CCCCCCCCCC[n+]1ccn(CCCB(O)O)c1.[Br-]",1.38 ± 0.09
23,"C1COCCO1 [1,4-dioxane] + CCCCCCCC[n+]1ccn(CCCB(O)O)c1.[Br-]",1.78 ± 0.12
24,"C1COCCO1 [1,4-dioxane] + C[n+]1ccn(CCCB(O)O)c1.[Br-]",11.2 ± 0.77
25,C#CCCCCC [1-heptyne] + C=CC[n+]1ccn(CCCCCCCC)c1.[Br-],2.56 ± 0.17
26,C#CCCCCC [1-heptyne] + C=CC[n+]1ccn(CCCCCCCCCC)c1.[Br-],2.58 ± 0.18
27,C#CCCCCC [1-heptyne] + C=CC[n+]1ccn(CCCCCCCCCCCC)c1.[Br-],1.87 ± 0.13

row,SMILES,activity coefficient
1,C#CCCCCC [1-heptyne] + C=CCn1cc[n+](C)c1.[Br-],13.2 ± 0.9
2,C#CCCCCC [1-heptyne] + CCCCCCCCCCCC[n+]1ccn(CCCB(O)O)c1.[Br-],2.2 ± 0.15
3,C#CCCCCC [1-heptyne] + CCCCCCCCCC[n+]1ccn(CCCB(O)O)c1.[Br-],2.22 ± 0.15
4,C#CCCCCC [1-heptyne] + CCCCCCCC[n+]1ccn(CCCB(O)O)c1.[Br-],3.7 ± 0.25
5,C#CCCCCC [1-heptyne] + C[n+]1ccn(CCCB(O)O)c1.[Br-],42.9 ± 2.9
6,C#CCCCC [1-hexyne] + C=CC[n+]1ccn(CCCCCCCC)c1.[Br-],2.04 ± 0.14
7,C#CCCCC [1-hexyne] + C=CC[n+]1ccn(CCCCCCCCCC)c1.[Br-],2.02 ± 0.14
8,C#CCCCC [1-hexyne] + C=CC[n+]1ccn(CCCCCCCCCCCC)c1.[Br-],1.56 ± 0.1
9,C#CCCCC [1-hexyne] + C=CCn1cc[n+](C)c1.[Br-],8.27 ± 0.56
10,C#CCCCC [1-hexyne] + CCCCCCCCCCCC[n+]1ccn(CCCB(O)O)c1.[Br-],1.86 ± 0.13
11,C#CCCCC [1-hexyne] + CCCCCCCCCC[n+]1ccn(CCCB(O)O)c1.[Br-],1.77 ± 0.12
12,CCC[N+](=O)[O-] [1-nitropropane] + C=CC[n+]1ccn(CCCCCCCC)c1.[Br-],1.23 ± 0.08
13,CCC[N+](=O)[O-] [1-nitropropane] + C=CC[n+]1ccn(CCCCCCCCCC)c1.[Br-],1.14 ± 0.07
14,CCC[N+](=O)[O-] [1-nitropropane] + C=CC[n+]1ccn(CCCCCCCCCCCC)c1.[Br-],1.12 ± 0.07
15,CCC[N+](=O)[O-] [1-nitropropane] + C=CCn1cc[n+](C)c1.[Br-],1.83 ± 0.12
16,CCC[N+](=O)[O-] [1-nitropropane] + CCCCCCCCCCCC[n+]1ccn(CCCB(O)O)c1.[Br-],1.51 ± 0.1
17,CCC[N+](=O)[O-] [1-nitropropane] + CCCCCCCCCC[n+]1ccn(CCCB(O)O)c1.[Br-],1.19 ± 0.08
18,CCC[N+](=O)[O-] [1-nitropropane] + CCCCCCCC[n+]1ccn(CCCB(O)O)c1.[Br-],1.58 ± 0.1
19,CCC[N+](=O)[O-] [1-nitropropane] + C[n+]1ccn(CCCB(O)O)c1.[Br-],15.8 ± 1.1
20,CCC(C)=O [butanone] + C=CC[n+]1ccn(CCCCCCCC)c1.[Br-],1.46 ± 0.1
21,CCC(C)=O [butanone] + C=CC[n+]1ccn(CCCCCCCCCC)c1.[Br-],1.48 ± 0.1
22,CCC(C)=O [butanone] + C=CC[n+]1ccn(CCCCCCCCCCCC)c1.[Br-],1.43 ± 0.09
23,CCC(C)=O [butanone] + C=CCn1cc[n+](C)c1.[Br-],2.68 ± 0.18
24,CCC(C)=O [butanone] + CCCCCCCCCCCC[n+]1ccn(CCCB(O)O)c1.[Br-],1.33 ± 0.09
25,CCC(C)=O [butanone] + CCCCCCCCCC[n+]1ccn(CCCB(O)O)c1.[Br-],1.59 ± 0.11
26,CCC(C)=O [butanone] + CCCCCCCC[n+]1ccn(CCCB(O)O)c1.[Br-],1.88 ± 0.13
27,CCC(C)=O [butanone] + C[n+]1ccn(CCCB(O)O)c1.[Br-],21.8 ± 1.5

# More lines, now with the values ahead:
row,activity coefficient,SMILES
1,2.77 ± 0.19,C#CCCCC [1-hexyne] + CCCCCCCC[n+]1ccn(CCCB(O)O)c1.[Br-]
2,0.29 ± 0.03,CC(C)CO [2-methyl-1-propanol] + C=CC[n+]1ccn(CCCCCCCC)c1.[Br-]
3,0.29 ± 0.03,CC(C)CO [2-methyl-1-propanol] + C=CC[n+]1ccn(CCCCCCCCCC)c1.[Br-]
4,0.23 ± 0.03,CC(C)CO [2-methyl-1-propanol] + C=CC[n+]1ccn(CCCCCCCCCCCC)c1.[Br-]
5,0.33 ± 0.03,CC(C)CO [2-methyl-1-propanol] + C=CCn1cc[n+](C)c1.[Br-]
6,0.98 ± 0.06,CC#N [acetonitrile] + C=CC[n+]1ccn(CCCCCCCC)c1.[Br-]
7,0.89 ± 0.06,CC#N [acetonitrile] + C=CC[n+]1ccn(CCCCCCCCCC)c1.[Br-]
8,0.86 ± 0.06,CC#N [acetonitrile] + C=CC[n+]1ccn(CCCCCCCCCCCC)c1.[Br-]
9,1.04 ± 0.07,CC#N [acetonitrile] + C=CCn1cc[n+](C)c1.[Br-]
10,1.16 ± 0.07,CC#N [acetonitrile] + CCCCCCCCCCCC[n+]1ccn(CCCB(O)O)c1.[Br-]
11,0.95 ± 0.06,CC#N [acetonitrile] + CCCCCCCCCC[n+]1ccn(CCCB(O)O)c1.[Br-]
12,1.28 ± 0.08,CC#N [acetonitrile] + CCCCCCCC[n+]1ccn(CCCB(O)O)c1.[Br-]
13,3.3 ± 0.22,CC#N [acetonitrile] + C[n+]1ccn(CCCB(O)O)c1.[Br-]
14,1.4 ± 0.09,c1ccccc1 [benzene] + C=CC[n+]1ccn(CCCCCCCC)c1.[Br-]
15,1.39 ± 0.09,c1ccccc1 [benzene] + C=CC[n+]1ccn(CCCCCCCCCC)c1.[Br-]
16,1.08 ± 0.07,c1ccccc1 [benzene] + C=CC[n+]1ccn(CCCCCCCCCCCC)c1.[Br-]

row,activity coefficient,SMILES
1,3.6 ± 0.25,c1ccccc1 [benzene] + C=CCn1cc[n+](C)c1.[Br-]
2,1.21 ± 0.08,c1ccccc1 [benzene] + CCCCCCCCCCCC[n+]1ccn(CCCB(O)O)c1.[Br-]
3,1.33 ± 0.09,c1ccccc1 [benzene] + CCCCCCCCCC[n+]1ccn(CCCB(O)O)c1.[Br-]
4,1.84 ± 0.12,c1ccccc1 [benzene] + CCCCCCCC[n+]1ccn(CCCB(O)O)c1.[Br-]
5,18.1 ± 1.2,c1ccccc1 [benzene] + C[n+]1ccn(CCCB(O)O)c1.[Br-]
6,5.66 ± 0.39,C1CCCCC1 [cyclohexane] + C=CC[n+]1ccn(CCCCCCCC)c1.[Br-]
7,5.64 ± 0.38,C1CCCCC1 [cyclohexane] + C=CC[n+]1ccn(CCCCCCCCCC)c1.[Br-]
8,3.12 ± 0.21,C1CCCCC1 [cyclohexane] + C=CC[n+]1ccn(CCCCCCCCCCCC)c1.[Br-]
9,15.7 ± 1.1,C1CCCCC1 [cyclohexane] + C=CCn1cc[n+](C)c1.[Br-]
10,3.25 ± 0.22,C1CCCCC1 [cyclohexane] + CCCCCCCCCCCC[n+]1ccn(CCCB(O)O)c1.[Br-]
11,3.89 ± 0.26,C1CCCCC1 [cyclohexane] + CCCCCCCCCC[n+]1ccn(CCCB(O)O)c1.[Br-]
12,8.15 ± 0.56,C1CCCCC1 [cyclohexane] + CCCCCCCC[n+]1ccn(CCCB(O)O)c1.[Br-]
13,0.28 ± 0.03,ClCCl [dichloromethane] + C=CC[n+]1ccn(CCCCCCCC)c1.[Br-]
14,0.27 ± 0.03,ClCCl [dichloromethane] + C=CC[n+]1ccn(CCCCCCCCCC)c1.[Br-]
15,0.25 ± 0.03,ClCCl [dichloromethane] + C=CC[n+]1ccn(CCCCCCCCCCCC)c1.[Br-]
